The values below come from patent publication US20020115661A1, “Method for treating chronic obstructive pulmonary disease” (priority 2000, published 2002).

In one series the target is T1, human ETA receptors (Homo sapiens, UniProt P25101).
T1 construct: expressed in transfected cells; host or cells: Ltk- cells (mouse fibroblast, thymidine kinase deficient)
T1 sequence (P25101 21-427): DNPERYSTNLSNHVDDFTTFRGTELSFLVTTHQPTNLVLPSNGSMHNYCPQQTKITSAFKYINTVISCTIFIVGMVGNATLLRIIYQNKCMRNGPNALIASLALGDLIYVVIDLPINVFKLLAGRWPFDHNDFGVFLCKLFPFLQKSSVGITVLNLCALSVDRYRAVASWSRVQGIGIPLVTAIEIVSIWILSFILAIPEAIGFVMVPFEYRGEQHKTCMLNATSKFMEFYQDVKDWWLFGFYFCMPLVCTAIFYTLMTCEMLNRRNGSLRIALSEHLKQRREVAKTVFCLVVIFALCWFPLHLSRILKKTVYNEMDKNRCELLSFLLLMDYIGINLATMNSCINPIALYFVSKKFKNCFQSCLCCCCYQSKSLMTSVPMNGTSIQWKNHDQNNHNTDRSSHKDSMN
Description: [125I]ET-1 binding to recombinant human ETA receptors (Ltk- cell membranes). The following applies: for IC50: Table 1 comparison with known endothelin antagonists, read-out: Receptor Inhibition, Human ETA; for ETB/ETA selectivity ratio: human ETB / human ETA receptor inhibition.

The next series concerns the target T2, human ETB receptors (Homo sapiens, UniProt P24530).
T2 construct: expressed in transfected cells; host or cells: CHO cells
T2 sequence (P24530 27-442): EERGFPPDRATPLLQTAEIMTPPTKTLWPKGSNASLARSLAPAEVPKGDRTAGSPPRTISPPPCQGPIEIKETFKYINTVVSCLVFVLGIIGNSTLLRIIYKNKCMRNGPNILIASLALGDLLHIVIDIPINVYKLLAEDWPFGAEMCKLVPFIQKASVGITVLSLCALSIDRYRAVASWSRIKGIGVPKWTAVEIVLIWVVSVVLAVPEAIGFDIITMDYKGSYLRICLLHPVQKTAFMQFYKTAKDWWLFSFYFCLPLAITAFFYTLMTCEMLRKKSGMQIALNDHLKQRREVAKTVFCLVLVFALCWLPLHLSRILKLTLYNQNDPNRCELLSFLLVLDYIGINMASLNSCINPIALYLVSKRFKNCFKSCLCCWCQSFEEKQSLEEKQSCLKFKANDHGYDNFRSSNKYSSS
Kind of series: [125I]ET-3 binding to recombinant human ETB receptors (CHO cell membranes). The settings on record: Table 1 comparison with known endothelin antagonists; read-out: Receptor Inhibition, Human ETB.

A short description of the next series: clinical. The following applies: human, plasma, oral, 2 mg.

With `COc1cc(OC)nc(O[C@H](C(=O)O)C(OC)(c2ccccc2)c2ccccc2)n1` [Darusentan], the IC50 on human ETA receptors came to 1.4 nM; on human ETB receptors, 184 nM. Moreover, the ETB/ETA selectivity ratio at human ETA receptors is 131.

For the molecule `CCCOc1ccc2c(c1)[C@@H](c1ccc(OC)cc1OCCO)[C@H](C(=O)O)[C@H]2c1ccc2c(c1)OCO2` [Enrasentan], at human ETA receptors, the IC50 is 0.1 nM and the ETB/ETA selectivity ratio turned out to be 1110. In addition, the IC50 on human ETB receptors was 111 nM.

In the case of `Cc1ncc2n1-c1ccc(Cl)cc1C(c1ccccc1F)=NC2` [midazolam], in “clinical”, the exposure AUC(0-t) is 15.2 ng·h/mL and the maximum concentration (Cmax) is 7.65 ng/mL.
